Assay results taken from US8129417B2, “Substituted octahydrocyclopenta[C]pyrrol-4-amines as calcium channel blockers” (Abbott Laboratories, priority 2008, dated 2012).

Molecular target: human Cav2.2 (Homo sapiens, UniProt Q00975)
Experiment: Assessment of calcium channel activity using FLIPR (Ca2+ influx in IMR32 cells)
Type: cell-based
Settings: 60 minute pre-incubation with compound, 2 μM nifedipine, depolarized with 80 mM KCl
Procedure, shortened: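 IC50 came from sigmoidal non-linear regression of percent inhibition, relative to uninhibited activity, across compound concentrations. Calcium influx was measured by FLIPR in IMR32 cells plated at 1-1.2×10^5 cells/well and cultured 48 h at 37 °C.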

human Cav2.2, sequence (Q00975 whole entry): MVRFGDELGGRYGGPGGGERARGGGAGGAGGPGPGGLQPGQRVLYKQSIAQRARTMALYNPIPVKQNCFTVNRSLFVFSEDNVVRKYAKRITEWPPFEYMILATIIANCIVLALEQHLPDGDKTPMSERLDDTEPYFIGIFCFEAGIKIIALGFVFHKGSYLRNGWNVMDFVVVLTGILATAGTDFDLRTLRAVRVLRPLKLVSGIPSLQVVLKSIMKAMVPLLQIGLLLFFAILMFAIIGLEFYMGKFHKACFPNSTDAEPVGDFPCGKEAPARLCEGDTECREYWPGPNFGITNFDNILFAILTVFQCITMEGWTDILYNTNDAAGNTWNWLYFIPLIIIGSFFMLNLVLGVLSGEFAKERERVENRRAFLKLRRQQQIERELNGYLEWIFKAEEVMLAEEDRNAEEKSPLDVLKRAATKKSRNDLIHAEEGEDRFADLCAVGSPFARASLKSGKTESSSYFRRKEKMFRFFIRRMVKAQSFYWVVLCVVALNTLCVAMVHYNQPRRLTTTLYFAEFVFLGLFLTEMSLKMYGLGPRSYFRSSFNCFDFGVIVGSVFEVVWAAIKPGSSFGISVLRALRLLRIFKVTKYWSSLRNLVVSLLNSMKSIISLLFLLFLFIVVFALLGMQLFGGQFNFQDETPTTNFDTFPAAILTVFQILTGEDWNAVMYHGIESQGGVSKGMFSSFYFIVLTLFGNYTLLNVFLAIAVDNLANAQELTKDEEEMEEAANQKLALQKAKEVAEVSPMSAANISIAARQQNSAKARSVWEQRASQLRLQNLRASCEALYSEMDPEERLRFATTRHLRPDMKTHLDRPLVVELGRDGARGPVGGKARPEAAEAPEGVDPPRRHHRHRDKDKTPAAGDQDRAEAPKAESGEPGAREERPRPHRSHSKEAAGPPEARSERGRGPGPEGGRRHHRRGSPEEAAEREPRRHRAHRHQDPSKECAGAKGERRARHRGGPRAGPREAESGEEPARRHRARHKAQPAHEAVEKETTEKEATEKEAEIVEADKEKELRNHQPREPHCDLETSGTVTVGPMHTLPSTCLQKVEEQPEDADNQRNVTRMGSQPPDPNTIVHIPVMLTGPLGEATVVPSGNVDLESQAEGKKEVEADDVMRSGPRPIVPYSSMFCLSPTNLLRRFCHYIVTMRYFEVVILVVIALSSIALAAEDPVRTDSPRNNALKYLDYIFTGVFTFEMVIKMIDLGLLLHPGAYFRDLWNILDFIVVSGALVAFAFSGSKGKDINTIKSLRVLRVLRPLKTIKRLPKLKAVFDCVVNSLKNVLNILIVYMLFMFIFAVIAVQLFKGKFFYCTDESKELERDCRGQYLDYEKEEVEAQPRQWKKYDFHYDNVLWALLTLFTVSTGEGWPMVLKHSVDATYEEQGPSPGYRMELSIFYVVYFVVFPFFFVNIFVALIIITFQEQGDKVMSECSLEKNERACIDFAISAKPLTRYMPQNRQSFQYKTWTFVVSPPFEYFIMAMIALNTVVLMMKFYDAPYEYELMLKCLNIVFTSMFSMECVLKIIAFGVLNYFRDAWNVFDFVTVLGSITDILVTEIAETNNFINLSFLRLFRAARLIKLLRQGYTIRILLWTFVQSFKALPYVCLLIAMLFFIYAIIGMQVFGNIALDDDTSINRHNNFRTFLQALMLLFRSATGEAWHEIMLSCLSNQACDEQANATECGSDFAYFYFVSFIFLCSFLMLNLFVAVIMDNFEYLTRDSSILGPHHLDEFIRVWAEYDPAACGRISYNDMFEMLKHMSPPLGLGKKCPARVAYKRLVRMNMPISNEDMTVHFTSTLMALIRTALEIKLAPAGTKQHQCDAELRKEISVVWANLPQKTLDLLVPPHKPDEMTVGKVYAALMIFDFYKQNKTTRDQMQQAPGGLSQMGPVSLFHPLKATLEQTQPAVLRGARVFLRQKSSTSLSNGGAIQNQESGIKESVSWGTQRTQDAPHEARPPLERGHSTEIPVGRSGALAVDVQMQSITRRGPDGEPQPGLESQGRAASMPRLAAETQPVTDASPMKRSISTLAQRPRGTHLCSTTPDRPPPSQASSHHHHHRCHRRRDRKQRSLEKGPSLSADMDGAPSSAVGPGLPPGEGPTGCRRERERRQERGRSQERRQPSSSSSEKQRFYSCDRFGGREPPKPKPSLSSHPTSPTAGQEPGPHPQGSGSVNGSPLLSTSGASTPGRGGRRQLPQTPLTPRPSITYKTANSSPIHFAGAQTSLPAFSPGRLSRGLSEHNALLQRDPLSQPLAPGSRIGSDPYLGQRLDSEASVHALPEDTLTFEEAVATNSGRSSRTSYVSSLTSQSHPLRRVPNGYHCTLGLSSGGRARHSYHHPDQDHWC
human Cav2.2, sequence (P54289 25-946 partner limits assumed): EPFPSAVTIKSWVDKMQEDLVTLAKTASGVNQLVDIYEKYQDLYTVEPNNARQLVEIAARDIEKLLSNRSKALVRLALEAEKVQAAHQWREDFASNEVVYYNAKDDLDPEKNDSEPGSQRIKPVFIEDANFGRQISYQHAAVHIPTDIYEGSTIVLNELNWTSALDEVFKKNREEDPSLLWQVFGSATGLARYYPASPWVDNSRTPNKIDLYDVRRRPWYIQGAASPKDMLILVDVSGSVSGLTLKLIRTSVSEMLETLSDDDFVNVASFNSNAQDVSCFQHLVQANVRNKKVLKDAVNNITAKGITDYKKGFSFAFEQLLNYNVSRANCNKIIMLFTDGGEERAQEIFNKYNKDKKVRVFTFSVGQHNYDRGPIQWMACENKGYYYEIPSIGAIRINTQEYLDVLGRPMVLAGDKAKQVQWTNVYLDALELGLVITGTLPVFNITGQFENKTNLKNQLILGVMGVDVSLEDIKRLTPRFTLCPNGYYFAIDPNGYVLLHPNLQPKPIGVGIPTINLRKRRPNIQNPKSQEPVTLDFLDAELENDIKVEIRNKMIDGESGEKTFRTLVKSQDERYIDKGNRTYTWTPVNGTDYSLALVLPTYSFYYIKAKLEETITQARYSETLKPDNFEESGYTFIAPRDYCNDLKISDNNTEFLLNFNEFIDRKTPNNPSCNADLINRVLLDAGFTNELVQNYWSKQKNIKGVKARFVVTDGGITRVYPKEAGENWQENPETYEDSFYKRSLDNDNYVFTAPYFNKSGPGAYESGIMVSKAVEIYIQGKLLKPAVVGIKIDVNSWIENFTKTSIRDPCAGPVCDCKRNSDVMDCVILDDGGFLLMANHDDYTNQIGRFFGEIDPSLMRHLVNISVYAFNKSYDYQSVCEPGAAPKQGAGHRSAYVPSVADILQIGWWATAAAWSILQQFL
human Cav2.2, sequence (P54289 947-1103 partner limits assumed): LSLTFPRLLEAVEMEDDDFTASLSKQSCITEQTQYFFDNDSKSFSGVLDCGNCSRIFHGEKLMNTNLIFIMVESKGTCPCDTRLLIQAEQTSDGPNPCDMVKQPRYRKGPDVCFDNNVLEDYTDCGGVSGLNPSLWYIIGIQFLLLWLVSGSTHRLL
human Cav2.2, sequence (P54284 whole entry partner): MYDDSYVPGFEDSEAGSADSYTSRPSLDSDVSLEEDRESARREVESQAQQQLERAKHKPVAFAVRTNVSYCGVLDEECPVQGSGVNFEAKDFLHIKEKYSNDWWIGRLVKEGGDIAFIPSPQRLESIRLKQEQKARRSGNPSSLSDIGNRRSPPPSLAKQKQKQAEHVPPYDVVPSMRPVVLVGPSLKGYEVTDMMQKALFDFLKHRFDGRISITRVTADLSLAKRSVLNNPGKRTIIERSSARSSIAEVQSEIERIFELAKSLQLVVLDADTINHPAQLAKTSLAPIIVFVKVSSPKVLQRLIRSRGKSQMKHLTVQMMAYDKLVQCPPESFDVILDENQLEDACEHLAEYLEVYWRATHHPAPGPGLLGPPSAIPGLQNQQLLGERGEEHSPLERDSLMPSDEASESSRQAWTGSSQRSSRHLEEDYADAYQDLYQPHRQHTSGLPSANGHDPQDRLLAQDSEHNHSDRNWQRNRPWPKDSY

| IC50 | SMILES |
| --- | --- |
| 2.28 µM | CCC[C@H](NC(C)C)C(=O)N[C@H]1CC[C@@H]2CN(S(=O)(=O)c3ccc(C(F)(F)F)cc3)C[C@@H]21 [Example 481, N^2-isopropyl-N^1-((3aR,4S,6aS)-2-{[4-(trifluoromethyl)phenyl]sulfonyl}octahydrocyclopenta[c]pyrrol-4-yl)-L-norvalinamide] |
| 1.97 µM | CCC[C@H](NC(C)C)C(=O)N[C@@H]1CC[C@H]2CN(S(=O)(=O)c3ccc(C(F)(F)F)cc3)C[C@H]21 [Example 482, N^2-isopropyl-N^1-((3aS,4R,6aR)-2-{[4-(trifluoromethyl)phenyl]sulfonyl}octahydrocyclopenta[c]pyrrol-4-yl)-L-norvalinamide] |
| 0.49 µM | CCC[C@H](NC(C)C)C(=O)N[C@H]1CC[C@@H]2CN(S(=O)(=O)c3cccc(C(F)(F)F)c3)C[C@@H]21 [Example 483, N^2-isopropyl-N^1-((3aR,4S,6aS)-2-{[3-(trifluoromethyl)phenyl]sulfonyl}octahydrocyclopenta[c]pyrrol-4-yl)-L-norvalinamide] |
| 0.97 µM | CCC[C@H](NC(C)C)C(=O)N[C@@H]1CC[C@H]2CN(S(=O)(=O)c3cccc(C(F)(F)F)c3)C[C@H]21 [Example 484, N^2-isopropyl-N^1-((3aS,4R,6aR)-2-{[3-(trifluoromethyl)phenyl]sulfonyl}octahydrocyclopenta[c]pyrrol-4-yl)-L-norvalinamide] |
| 1.21 µM | CC(C)N[C@@H](CC(C)(C)C)C(=O)N[C@H]1CC[C@@H]2CN(S(=O)(=O)c3cc(C(F)(F)F)ccc3Cl)C[C@@H]21 [Example 486, N^1-((3aR,4S,6aS)-2-{[2-chloro-5-(trifluoromethyl)phenyl]sulfonyl}octahydrocyclopenta[c]pyrrol-4-yl)-N^2-isopropyl-4-methyl-L-leucinamide] |
| 0.56 µM | CC(C)N[C@@H](CC(C)(C)C)C(=O)N[C@H]1CC[C@@H]2CN(S(=O)(=O)c3ccc(C(F)(F)F)cc3Cl)C[C@@H]21 [Example 487, N^1-((3aR,4S,6aS)-2-{[2-chloro-4-(trifluoromethyl)phenyl]sulfonyl}octahydrocyclopenta[c]pyrrol-4-yl)-N^2-isopropyl-4-methyl-L-leucinamide] |
| 3.12 µM | CC(C)N[C@@H](CC(C)(C)C)C(=O)N[C@H]1CC[C@@H]2CN(c3ccc(C(F)(F)F)cn3)C[C@@H]21 [Example 490, N^2-isopropyl-4-methyl-N^1-{(3aR,4S,6aS)-2-[5-(trifluoromethyl)pyridin-2-yl]octahydrocyclopenta[c]pyrrol-4-yl}-L-leucinamide] |
| 0.26 µM | CC(C)N[C@@H](CC(C)(C)C)C(=O)N[C@H]1CC[C@@H]2CN(c3cccc(C(F)(F)F)n3)C[C@@H]21 [Example 491, N^2-isopropyl-4-methyl-N^1-{(3aR,4S,6aS)-2-[6-(trifluoromethyl)pyridin-2-yl]octahydrocyclopenta[c]pyrrol-4-yl}-L-leucinamide] |
| 2 µM | CC(C)N[C@@H](CC(C)(C)C)C(=O)N1C[C@H]2CC[C@H](NC(=O)C(c3ccc(F)cc3)c3ccc(F)cc3)[C@H]2C1 [Example 492, 2,2-bis(4-fluorophenyl)-N-[(3aR,4S,6aS)-2-(N-isopropyl-4-methyl-L-leucyl)octahydrocyclopenta[c]pyrrol-4-yl]acetamide] |
| 0.53 µM | CC(C)C[C@H](NC(C)C)C(=O)N[C@H]1CC[C@@H]2CN(S(=O)(=O)c3cccc(C(F)(F)F)c3)C[C@@H]21 [Example 496, N^2-isopropyl-N^1-((3aR,4S,6aS)-2-{[3-(trifluoromethyl)phenyl]sulfonyl}octahydrocyclopenta[c]pyrrol-4-yl)-L-leucinamide] |
| 0.57 µM | CC(C)C[C@@H](C(=O)N[C@H]1CC[C@@H]2CN(S(=O)(=O)c3cccc(C(F)(F)F)c3)C[C@@H]21)N(C)C [Example 497, N^2,N^2-dimethyl-N^1-((3aR,4S,6aS)-2-{[3-(trifluoromethyl)phenyl]sulfonyl}octahydrocyclopenta[c]pyrrol-4-yl)-L-leucinamide] |
| 2.7 µM | CC(C)(C)C[C@H](NC1CC1)C(=O)N[C@H]1CC[C@@H]2CN(S(=O)(=O)c3ccc(C(F)(F)F)cc3)C[C@@H]21 [Example 499, N^2-cyclopropyl-4-methyl-N^1-((3aR,4S,6aS)-2-{[4-(trifluoromethyl)phenyl]sulfonyl}octahydrocyclopenta[c]pyrrol-4-yl)-L-leucinamide] |
| 0.82 µM | CC(C)(C)C[C@H](NC1CCCC1)C(=O)N[C@H]1CC[C@@H]2CN(S(=O)(=O)c3ccc(C(F)(F)F)cc3)C[C@@H]21 [Example 501, N^2-cyclopentyl-4-methyl-N^1-((3aR,4S,6aS)-2-{[4-(trifluoromethyl)phenyl]sulfonyl}octahydrocyclopenta[c]pyrrol-4-yl)-L-leucinamide] |
| 0.97 µM | CC(C)(C)C[C@H](NC1CCCCC1)C(=O)N[C@H]1CC[C@@H]2CN(S(=O)(=O)c3ccc(C(F)(F)F)cc3)C[C@@H]21 [Example 502, N^2-cyclohexyl-4-methyl-N^1-((3aR,4S,6aS)-2-{[4-(trifluoromethyl)phenyl]sulfonyl}octahydrocyclopenta[c]pyrrol-4-yl)-L-leucinamide] |
| 0.89 µM | CCC(CC)N[C@@H](CC(C)(C)C)C(=O)N[C@H]1CC[C@@H]2CN(S(=O)(=O)c3ccc(C(F)(F)F)cc3)C[C@@H]21 [Example 503, N^2-(1-ethylpropyl)-4-methyl-N^1-((3aR,4S,6aS)-2-{[4-(trifluoromethyl)phenyl]sulfonyl}octahydrocyclopenta[c]pyrrol-4-yl)-L-leucinamide] |
| 0.91 µM | CC(C)(C)C[C@H](NC1CCC1)C(=O)N[C@H]1CC[C@@H]2CN(S(=O)(=O)c3ccc(C(F)(F)F)cc3)C[C@@H]21 [Example 504, N^2-cyclobutyl-4-methyl-N^1-((3aR,4S,6aS)-2-{[4-(trifluoromethyl)phenyl]sulfonyl}octahydrocyclopenta[c]pyrrol-4-yl)-L-leucinamide] |
| 0.87 µM | CCC[C@H](NC1CCCCC1)C(=O)N[C@H]1CC[C@@H]2CN(S(=O)(=O)c3ccc(C(F)(F)F)cc3)C[C@@H]21 [Example 507, N^2-cyclohexyl-N^1-((3aR,4S,6aS)-2-{[4-(trifluoromethyl)phenyl]sulfonyl}octahydrocyclopenta[c]pyrrol-4-yl)-L-norvalinamide] |
| 8.6 µM | CC(C)(C)C[C@H](NC1CCCC1)C(=O)N[C@H]1CC[C@@H]2CN(C(=O)[C@H](CC(C)(C)C)NC3CCCC3)C[C@@H]21 [Example 508, N^2-cyclopentyl-N^1-[(3aR,4S,6aS)-2-(N-cyclopentyl-4-methyl-L-leucyl)octahydrocyclopenta[c]pyrrol-4-yl]-4-methyl-L-leucinamide] |
| 1.68 µM | CC(C)C[C@@H](C(=O)N[C@@H]1CC[C@H]2CN(Cc3ccccc3)C[C@H]21)N(C)CC(C)(C)C [Example 510, N^1-[(3aS,4R,6aR)-2-benzyloctahydrocyclopenta[c]pyrrol-4-yl]-N^2-methyl-N^2-neopentyl-L-leucinamide] |
| 2.12 µM | CC(C)C[C@@H](C(=O)N[C@@H]1CC[C@H]2CN(Cc3ccccc3)C[C@H]21)N(C)CCC(C)(C)C [Example 511, N^1-[(3aS,4R,6aR)-2-benzyloctahydrocyclopenta[c]pyrrol-4-yl]-N^2-(3,3-dimethylbutyl)-N^2-methyl-L-leucinamide] |
| 0.47 µM | CC(C)C[C@@H](C(=O)N[C@@H]1CC[C@H]2CN(S(=O)(=O)c3cccc(C(F)(F)F)c3)C[C@H]21)N(C)C [Example 512, N^2,N^2-dimethyl-N^1-((3aS,4R,6aR)-2-{[3-(trifluoromethyl)phenyl]sulfonyl}octahydrocyclopenta[c]pyrrol-4-yl)-L-leucinamide] |
| 2.15 µM | CC(C)C[C@@H](C(=O)N[C@@H]1CC[C@H]2CN(Cc3ccccc3)C[C@H]21)N(C)Cc1ccc(F)cc1 [Example 513, N^1-[(3aS,4R,6aR)-2-benzyloctahydrocyclopenta[c]pyrrol-4-yl]-N^2-(4-fluorobenzyl)-N^2-methyl-L-leucinamide] |
| 3.17 µM | CC(C)[C@@H](CC(=O)N[C@H]1CC[C@@H]2CN(S(=O)(=O)c3cccc(C(F)(F)F)c3)C[C@@H]21)NS(C)(=O)=O [Example 515, (3R)-4-methyl-3-[(methylsulfonyl)amino]-N-((3aR,4S,6aS)-2-{[3-(trifluoromethyl)phenyl]sulfonyl}octahydrocyclopenta[c]pyrrol-4-yl)pentanamide] |
| 2.99 µM | CC(C)C[C@H](NS(C)(=O)=O)C(=O)N[C@H]1CC[C@@H]2CN(Cc3cccc(C(F)(F)F)c3)C[C@@H]21 [Example 516, N^2-(methylsulfonyl)-N^1-{(3aR,4S,6aS)-2-[3-(trifluoromethyl)benzyl]octahydrocyclopenta[c]pyrrol-4-yl}-L-leucinamide] |
| 4.45 µM | CC(C)C[C@@H](NS(C)(=O)=O)C(=O)N[C@H]1CC[C@@H]2CN(Cc3cccc(C(F)(F)F)c3)C[C@@H]21 [Example 517, N^2-(methylsulfonyl)-N^1-{(3aR,4S,6aS)-2-[3-(trifluoromethyl)benzyl]octahydrocyclopenta[c]pyrrol-4-yl}-D-leucinamide] |
| 0.81 µM | CCN([C@@H](CC(C)C)C(=O)N[C@H]1CC[C@@H]2CN(Cc3cccc(C(F)(F)F)c3)C[C@@H]21)S(C)(=O)=O [Example 518, N^2-ethyl-N^2-(methylsulfonyl)-N^1-{(3aR,4S,6aS)-2-[3-(trifluoromethyl)benzyl]octahydrocyclopenta[c]pyrrol-4-yl}-L-leucinamide] |
| 5.14 µM | CC(C)(C)C[C@H](NS(C)(=O)=O)C(=O)N[C@H]1CC[C@@H]2CN(Cc3ccc(C(F)(F)F)cc3)C[C@@H]21 [Example 519, 4-methyl-N^2-(methylsulfonyl)-N^1-{(3aR,4S,6aS)-2-[4-(trifluoromethyl)benzyl]octahydrocyclopenta[c]pyrrol-4-yl}-L-leucinamide] |
| 9.6 µM | CCC[C@H](NS(C)(=O)=O)C(=O)N[C@H]1CC[C@@H]2CN(Cc3ccc(C(F)(F)F)cc3)C[C@@H]21 [Example 521, N^2-(methylsulfonyl)-N^1-{(3aR,4S,6aS)-2-[4-(trifluoromethyl)benzyl]octahydrocyclopenta[c]pyrrol-4-yl}-L-norvalinamide] |
